Assay results published in patent US20210348119A1, “COMPOSITIONS AND METHODS FOR CELL CULTURE” (The United States of America as Represented By The …, priority 2018, published 2021).
Values joined by “and” are separate entries in the source; they are usually repeats but may differ in a detail not shown here. Equal entries are not always repeated. Where two headings read alike, the source gives them in different places.

Tested on: H9 cells
Assay: qHTS for survival of dissociated H9 cells (CellTiter-Glo, 24 hours after seeding)
Type: cell-based, human
Conditions: for AC50: CellTiter-Glo 24 hours after seeding, read-out: AC50 (concentration at 50% efficacy)
From the text: FIG. 2 schematically illustrates qHTS procedure.
All the screed compounds were received pre-plated at the pre-determined concentrations. […] Curve classification is explained in Huang et al. “Chemical genomics profiling of environmental chemical modulation of human nuclear receptors” Environ. Health. Perspect.

[1] = H9 cell survival normalized to 10 μM Y-27632 (taken to be 100%)
[2] = H9 cell survival, normalized to 10 μM Y-27632
[3] = Homo sapiens, H9, 24 h, H9 cell survival normalized to 10 μM Y-27632 (taken to be 100%), read-out: Max (maximum activity value from all tested concentrations)
[4] = Homo sapiens, H9, 24 h, H9 cell survival
[5] = Homo sapiens, H9, 24 h, H9 cell survival, normalized to 10 μM Y-27632, read-out: Efficacy (activity range between predicted activities at zero and infinite doses, Hill equation)

Compound: CC(C)CCC(=O)CC1c2ccccc2C(=O)N1c1ccc2ccc(Cl)nc2n1 (single isomer, unassigned; (+)) [(+)-Pagoclone]
- Max (maximum activity value from all tested concentrations) [1]: 22.94%
- Efficacy (activity range between predicted activities at zero and infinite doses, Hill equation) [2]: 0

Compound: Oc1cccc2c(O)nccc12 [1,5-Isoquinolinediol]
- Emax [3]: 41%
- AC50 [4]: 18.4 µM
- Emax [5]: 42.2%

Compound: CC1CN(S(=O)(=O)c2cccc3cnccc23)CCN1.Cl.Cl (stereo not drawn) [1-05-IsoquinolinylstilfonyI)-3-methylpiperazine dihydroehloride]
- Max (maximum activity value from all tested concentrations) [1]: 100.6%
- AC50 (H9 cell survival): 20.6 µM
- Efficacy (activity range between predicted activities at zero and infinite doses, Hill equation) [2]: 102

Compound: COc1cccc(CNC(=O)Nc2nc(-c3ccncc3)cs2)c1 [1-(3-methoxybenzyl)-3-(4-(pyridin-4-yl)thiazol-2-yl)urea]
- Emax [3]: 124%
- AC50 [4]: 0.147 µM
- Emax [5]: 121%

Compound: CC1CNCCN1S(=O)(=O)c1cccc2cnccc12.Cl.Cl (stereo not drawn) [1-(5-Isoquinolinylsulfonyl)-2-methylpipenvine dihydrochloride]
- Max (maximum activity value from all tested concentrations) [1]: 85.52%
- AC50 (H9 cell survival): 4.61 µM
- Efficacy (activity range between predicted activities at zero and infinite doses, Hill equation) [2]: 92.2

Compound: C[C@]12C[C@@H](O)[C@H]3[C@@H](CC[C@@H]4C[C@@H](O)CC[C@@]43CO)[C@@]1(O)CC[C@@H]2C1=CC(=O)OC1 [19-hydroxysarmentogenin]
- Max (maximum activity value from all tested concentrations) [1]: 21.79%
- AC50 (H9 cell survival): 0.004 µM
- Efficacy (activity range between predicted activities at zero and infinite doses, Hill equation) [2]: −11.5

Compound: Cc1n[nH]c2ccc(-c3cncc(OC[C@@H](N)Cc4c[nH]c5ccccc45)c3)cc12 [A-443654]
- Emax [3]: 39.8%
- Emax [5]: 0%

Compound: Cc1cccc(NC(=O)c2ccc(C(F)(F)F)cc2C(=O)O)n1 [AF38469]
- Max (maximum activity value from all tested concentrations) [1]: 22.96%
- AC50 (H9 cell survival): 5.21 µM
- Efficacy (activity range between predicted activities at zero and infinite doses, Hill equation) [2]: 29.6

Compound: CCn1c(-c2nonc2N)nc2c(C#CCO)ncc(OCCCN)c21 [AKT Kinase Inhibitor]
- Max (maximum activity value from all tested concentrations) [1]: 46.89%
- Efficacy (activity range between predicted activities at zero and infinite doses, Hill equation) [2]: 0

Compound: O=C1NC(=O)C(=O)C(=O)N1 [ALLOXAN]
- Emax (Homo sapiens, H9, 24 h, read-out: Efficacy (activity range between predicted activities at zero and infinite doses, Hill equation)): 27.2%
- Emax (Homo sapiens, H9, 24 h, read-out: Max (maximum activity value from all tested concentrations)): 22.4%
- AC50 (Homo sapiens, H9 cell survival): 5.21 µM

Compound: CNc1nccc(-c2cccnc2Oc2cc(C(=O)Nc3cccc(C(F)(F)F)c3)ccc2C)n1 [AMG-Tie2-1]
- Max (maximum activity value from all tested concentrations) [1]: 57.84%
- AC50 (H9 cell survival): 18.7 µM
- Efficacy (activity range between predicted activities at zero and infinite doses, Hill equation) [2]: 54.5

Compound: O=C(Nc1ccc(-c2ccncc2)cc1)N[C@H](CO)c1ccccc1 [AS 1892802]
- Max (maximum activity value from all tested concentrations) [1]: 117.5%
- AC50 (H9 cell survival): 1.31 µM
- Efficacy (activity range between predicted activities at zero and infinite doses, Hill equation) [2]: 115

Compound: Clc1ccc(C2(c3ccc(-c4cn[nH]c4)cc3)CCNCC2)cc1 [AT-7867]
- Max (maximum activity value from all tested concentrations) [1]: 119.5% and 118.4%
- Efficacy (activity range between predicted activities at zero and infinite doses, Hill equation) [2]: 92.2 and 104

Compound: NC[C@@](O)(c1ccc(Cl)cc1)c1ccc(-c2cn[nH]c2)cc1 [AT-13148]
- Emax [3]: 89.8%
- AC50 [4]: 0.104 µM
- Emax [5]: 64.5%

Compound: CCCCOc1c(C(=O)c2c(F)cc(C)cc2F)c[nH]c2nncc1-2 [BMS-265246]
- Emax [3]: 42.8%
- AC50 [4]: 1.18 µM
- Emax [5]: 33.9%

Compound: Cl.O=c1[nH]c([C@@H]2CCCN2)nc2c1oc1ccc(Cl)cc12 [BMS-863233 (XL-413)]
- Max (maximum activity value from all tested concentrations) [1]: 22.03%
- AC50 (H9 cell survival): 26.1 µM
- Efficacy (activity range between predicted activities at zero and infinite doses, Hill equation) [2]: 28.3

Compound: CCS(=O)(=O)N1CC(CC#N)(n2cc(-c3ncnc4[nH]ccc34)cn2)C1 [Baricitinib]
- Emax [3]: 115%

Compound: CCCC1(C)C(C#N)(C#N)C1(C#N)C#N [CCG-2046]
- Max (maximum activity value from all tested concentrations) [1]: 21.78%
- AC50 (H9 cell survival): 20.6 µM
- Efficacy (activity range between predicted activities at zero and infinite doses, Hill equation) [2]: 23.7

Compound: NC1(Cc2ccc(Cl)cc2)CCN(c2ncnc3[nH]ccc23)CC1 [CCT-128930]
- Max (maximum activity value from all tested concentrations) [1]: 106.8%
- AC50 (H9 cell survival): 11.8 µM
- Efficacy (activity range between predicted activities at zero and infinite doses, Hill equation) [2]: 133
